The numbers were not newly measured in patent US12030852B2, “Method for producing fatty alcohol esters of hydroxycarboxylic acids” (IOI Oleo GmbH, priority 2019, dated 2024), which cites them from elsewhere.

For this series the following is noted: even if several grams are taken; short plasma half-life.

Structures are written as SMILES.

Consider `CC(O)CC(=O)O` (stereo not shown) [3-hydroxybutyric acid], for which the duration of ketosis result is “about three to four”.
